Experimental data as given in patent US8293211B2, “CB1 receptor antagonists and uses thereof” (MAKScientific, LLC, priority 2007, dated 2012).
pKi: −log10 of the molar value.

Key:
Rats [1] = test: Operant lever pressing on FR5 schedules; format: in vivo, rat
Method: Following the initial training period, rats (n=8 each group) were injected with drug and then tested once a week on Thursdays. For experiments 1 and 2, Compound 3 or Compound 2, respectively were injected IP at doses of 1.0, 2.0, 4.0, or 8.0 mg/kg or vehicle. Pretreatment time for these two experiments was 30 min. For experiments 3 and 4, rats were given drug or vehicle orally 1 hour before testing. In experiment 3, rats were given vehicle or 8.0, 16.0, or 32.0 mg/kg Compound 3. In experiment 4, rats received vehicle or Compound 2 at doses of 4.0, 8.0, or 16.0 mg/kg. All doses were given in a randomized order using a repeated measures design.

Rats [2] = test: Taste reactivity studies (conditioned gaping, saccharin preference); format: in vivo, rat; conditions: for Mean (±SEM) saccharin preference ratio: 2-bottle preference test
Method: Rats were implanted with intraoral cannulae and 24 hrs prior to the surgical procedure, they were administered a prophylactic antibiotic (Derapin, 100 mg/kg, sc; Ayerst). On the day of surgery, the rats were anaesthetized with isofluorane gas and were administered Anafen (7.0 mg/kg, sc; Merial), a nonsteroidal anti-inflammatory drug (NSAID) with analgesic properties. A 3.0 cm^2 patch of fur was shaved at the back of the neck just above the scapula and the area was surgically prepared [Betadine surgical scrub (Purdue Frederick) and alcohol]. A thin-walled 15-gauge stainless steel needle was inserted at the back of the neck, directed s.c., around the ear and brought out behind the first molar inside the mouth. A length of IntraMedic polyetheylene tubing with an inner diameter of 0.86 mm and an outer diameter of 1.27 mm was then run through the needle after which the needle was removed. Two circular elastic discs were placed over the tubing and drawn to the exposed skin at the back of the neck for the purpose of stabilizing the cannula. The tubing was held secure in the oral cavity by an o-ring, which was sealed behind the tubing prior to cannulation surgery. For the purposes of conditioning and testing, the cannula was connected to the infusion pump (Harvard Apparatus, South Natick, Mass.) for delivery of the solution by slipping the tubing of the cannula inside a second polyethylene tube (inner diameter 1.19 mm, outer diameter 1.70 mm) attached to the infusion pump. Two rats were subsequently removed from the study due to an ineffective cannula.
Five days after surgery and prior to conditioning (day 1), rats were individually placed in the Plexiglas taste reactivity chamber (22.5×26×20 cm) with their cannula attached to the infusion pump for fluid delivery. The rats were habituated to the taste reactivity procedure by infusing them with water for a period of 5 min at a rate of 1.0 ml/min after which they were returned to their home cage. On day 2, the rats were individually taken to the chamber for a single conditioning trial. They were intraorally infused with 0.1% saccharin solution for 5 min at a rate of 1.0 ml/min while their orofacial and somatic responses were videotaped from a mirror at a 45° angle below the chamber. Immediately after the saccharin infusion the rats were injected with the appropriate dose of Compound 3, according to random assignment: 0.0 mg/kg (vehicle; n=8), 2.0 mg/kg (n=7), 4.0 mg/kg (n=7), 8.0 mg/kg (n=8). On day 5, the animals were given a second adaptation trial with a 5-min intraoral infusion of water.
Taste reactivity testing occurred on day 6, 96 hr after conditioning. The rats were taken to the chamber and following a period of 1 min were infused with 0.1% saccharin solution over a period of 5 min (1.0 ml/min) while being videotaped. Immediately after the session, the rats were returned to their home cage. On day 7, following 15 hr of water deprivation, the rats were given a 2-bottle preference test. The rats were presented with a graduated tube containing 0.1% saccharin solution and a graduated tube containing water for a period of 120 min. The amount consumed from each bottle during the 120 min of drinking was converted to a preference score: Amount consumed of saccharin solution/amount consumed of saccharin+amount consumed of water. The taste reactivity videotapes were scored using the Observer (Noldus Information Technology, Sterling, Va.) event-recording program. The behaviors scored included the frequency of gaping, chin rubs, ingestive reactions, passive drips and activity. Gaping was defined as rapid, large-amplitude opening of the mandible with retraction of the corners of the mouth. Chin rubbings were defined as chin or mouth in direct contact with the floor or wall of the chamber and forward projections of the body. […]

hCB2 receptor = target: T1, hCB2 receptor (Homo sapiens, UniProt P34972); test: [3H]CP55,940 competitive binding assay, CB2 (HEK293 cells expressing hCB2); conditions: against [3H]CP55,940; HEK293 hCB2 membranes
T1 construct: expressed in transfected cells; host or cells: HEK293
T1 sequence (P34972 whole entry): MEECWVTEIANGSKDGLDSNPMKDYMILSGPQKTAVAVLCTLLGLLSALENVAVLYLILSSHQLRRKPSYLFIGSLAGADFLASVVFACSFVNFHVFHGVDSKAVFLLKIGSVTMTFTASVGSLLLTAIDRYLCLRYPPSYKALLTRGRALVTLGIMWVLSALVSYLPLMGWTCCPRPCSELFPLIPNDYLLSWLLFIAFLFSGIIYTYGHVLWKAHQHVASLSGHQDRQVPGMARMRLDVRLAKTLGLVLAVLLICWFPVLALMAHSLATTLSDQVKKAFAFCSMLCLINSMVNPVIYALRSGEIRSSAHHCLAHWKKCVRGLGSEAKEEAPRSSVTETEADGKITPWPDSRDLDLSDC
Method: Compounds were tested for their CB1 and CB2 receptor using membrane preparations from rat brain or HEK293 cells expressing hCB2 receptor, respectively, and [^3H]CP55,940 as previously described 1, 36-38. Stock solutions of the compounds (10 mM in DMSO) were diluted in TME buffer (50 mM Tris-HCL, 3 mM MgCl2, 100 mM NaCl, 0.2 mM EDTA, pH 7.4) with 0.1% BSA and transferred to 96 well plates containing [^3H]CP55,940 (specific activity 128 Ci/mmol; NIDA) at a final concentration of 0.76 nM. Non-specific binding was assessed in the presence of 100 nM CP55,940. The binding reaction was initiated with the addition of the respective membrane suspension (˜50 μg membrane protein) followed by incubation at 30° C. with gentle agitation in a shaking water bath for 60 minutes. […] The filter plates were washed with ice-cold wash buffer (50 mM Tris-base, 5 mM MgCl2 with 0.5% BSA) and bound radioactivity was determined using a Packard TopCount Scintillation Counter. The results were analyzed using nonlinear regression to determine the actual IC50 and the Ki values of the ligand (Prizm by GraphPad Software, Inc.). All data were in duplicate with IC50 and Ki values determined from at least two independent experiments.
The affinity of a compound for CB1 vs. CB2 is determined by the ratio of the inhibitory constants (Ki), as determined by the competitive binding assay.

CB1 receptor = CB1 receptor (Rattus norvegicus, UniProt P20272); test: Thermoregulation assay: hypothermia induced by the CB1 agonist CP55,940; format: in vivo; set-up: antagonized CB1 receptors in vivo; from tissue; host or cells: whole animal, male SD rats
Chain of CB1 receptor (P20272 whole entry): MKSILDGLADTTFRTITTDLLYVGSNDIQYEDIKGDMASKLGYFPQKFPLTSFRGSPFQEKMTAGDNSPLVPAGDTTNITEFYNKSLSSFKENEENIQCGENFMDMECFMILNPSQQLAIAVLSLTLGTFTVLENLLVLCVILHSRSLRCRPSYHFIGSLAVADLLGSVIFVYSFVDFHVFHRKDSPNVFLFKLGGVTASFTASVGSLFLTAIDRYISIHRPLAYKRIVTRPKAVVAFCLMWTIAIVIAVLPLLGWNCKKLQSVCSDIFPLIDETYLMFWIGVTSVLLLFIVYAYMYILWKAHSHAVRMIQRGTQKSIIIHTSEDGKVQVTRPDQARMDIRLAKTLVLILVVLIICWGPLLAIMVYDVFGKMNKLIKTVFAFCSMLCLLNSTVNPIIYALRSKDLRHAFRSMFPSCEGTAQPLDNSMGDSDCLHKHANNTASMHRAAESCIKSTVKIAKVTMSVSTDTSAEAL
Method: Briefly, silicone coated temperature data loggers (SubCue Inc, Calgary, Canada) were surgically implanted into the abdominal cavity of male SD (450-500 g) rats under isoflurane anesthesia (4% induction; 2-2.5% maintenance). Rats were allowed to recover for 3 days before being acclimatized to testing and handling procedures for an additional seven days. Core body temperature readings were sampled every 5 min for 300 min during the course of each experiment.

ingestion (hedonic) taste reactions, Mean±SEM (Rats [2]; 2.0 mg/kg): 10.5 (3.2)
Mean (±SEM) saccharin preference ratio (Rats [2]; 2.0 mg/kg): 0.411 (0.059)
ingestion (hedonic) taste reactions, Mean±SEM (Rats [2]; 4.0 mg/kg): 4.5 (1.5)
Mean (±SEM) saccharin preference ratio (Rats [2]; 4.0 mg/kg): 0.298 (0.074)
ingestion (hedonic) taste reactions, Mean±SEM (Rats [2]; 8.0 mg/kg): 1.3 (0.5)
Mean (±SEM) saccharin preference ratio (Rats [2]; 8.0 mg/kg): 0.088 (+0.017)
effect on chin rubbing or conditioned gaping (Rats [2]; 2.0, 4.0, 8.0 mg/kg): no significant effects
pKi (hCB2 receptor): 7.04
hypothermic effect of CP55,940 (CB1 receptor; 5 mg kg-1 pre-treatment 45 min before CP55,940 0.3 mg kg-1, compared with vehicle): completely blocked
blood brain barrier passage (CB1 receptor; inferred from block of centrally mediated hypothermia, within a short period after administration): crosses the blood brain barrier
Structure (SMILES): Cc1c(C(=O)NN2CCCCC2)nn(-c2ccc(Cl)cc2Cl)c1-c1ccc(C#CCCC#N)cc1 [Compound 3]
suppression of FR5 responding compared to vehicle (Rats [1]; IP 1.0, 2.0, 4.0, 8.0 mg/kg): significantly suppressed
ED50 (Rats [1]; Rattus norvegicus, IP, pretreatment 30 min, read-out: ED50 for the effect on FR5 responding): 0.78 mg/kg
change in lever pressing on FR5 compared to vehicle (Rats [1]; oral, 1 hour before testing (Compound 3 8.0-32.0 mg/kg; Compound 2 4.0-16.0 mg/kg)): no significant change
